Laboratory results taken from the supplement of paper PMC8882468.
± gives the standard deviation of the averaged measurements.

The molecules below were run on HCI-005.E2 (organoid from a breast cancer xenograft with a HER2-positive history) (assay: CTG-3D luminescence at 96 h relative to day-0 seeding control (ratio to day 0); higher = more growth / less cytotoxicity; PDxO 3D drug screen, 96 h, CTG-3D normalised to day-0 seeding control.). Details: 12.5 pM.

Compound | CTG-3D luminescence at 96 h
COc1cc2c(Oc3ccc4[nH]c(C)cc4c3F)ncnc2cc1OCCCN1CCCC1 [cediranib] | 1.5 ± 0.57
CC(C)n1nc(-c2ccc3oc(N)nc3c2)c2c(N)ncnc21 [sapanisertib] | 2.06 ± 0.39
Cc1cc(Nc2ncnc3ccc(NC4=NC(C)(C)CO4)cc23)ccc1Oc1ccn2ncnc2c1 [tucatinib] | 1.56 ± 0.42
C[C@H](NC(=O)CCC(F)(F)F)C(=O)N[C@@H]1C(=O)N(CCO)c2ncccc2-c2ccccc21 [crenigacestat] | 1.59 ± 0.68
C[C@]12CC[C@@H]3c4ccc(O)cc4C[C@@H](CCCCCCCCC[S+]([O-])CCCC(F)(F)C(F)(F)F)[C@H]3[C@@H]1CC[C@@H]2O (some centres not stated) [fulvestrant] | 1.53 ± 0.49
O=C(c1ccc(F)c(F)c1Nc1ccc(I)cc1F)N1CC(O)([C@@H]2CCCCN2)C1 [cobimetinib] | 1.55 ± 0.54
O=C(/C=C/c1cccnc1)NCCCCC1CCN(C(=O)c2ccccc2)CC1 [FK866] | 1.39 ± 0.24
CS(=O)(=O)c1ccc(C(=O)Nc2ccc(Cl)c(-c3ccccn3)c2)c(Cl)c1 [vismodegib] | 1.47 ± 0.03
C=CCn1c(=O)c2cnc(Nc3ccc(N4CCN(C)CC4)cc3)nc2n1-c1cccc(C(C)(C)O)n1 [adavosertib] | 1.7 ± 0.51

Same assay, conditions: 0.00025 µM

Compound | CTG-3D luminescence at 96 h
COc1cc2c(Oc3ccc4[nH]c(C)cc4c3F)ncnc2cc1OCCCN1CCCC1 [cediranib] | 1.54 ± 0.47
CC(C)n1nc(-c2ccc3oc(N)nc3c2)c2c(N)ncnc21 [sapanisertib] | 2.01 ± 0.56
Cc1cc(Nc2ncnc3ccc(NC4=NC(C)(C)CO4)cc23)ccc1Oc1ccn2ncnc2c1 [tucatinib] | 1.61 ± 0.47
C[C@H](NC(=O)CCC(F)(F)F)C(=O)N[C@@H]1C(=O)N(CCO)c2ncccc2-c2ccccc21 [crenigacestat] | 1.76 ± 0.42
C[C@]12CC[C@@H]3c4ccc(O)cc4C[C@@H](CCCCCCCCC[S+]([O-])CCCC(F)(F)C(F)(F)F)[C@H]3[C@@H]1CC[C@@H]2O (some centres not stated) [fulvestrant] | 2.5 ± 1
O=C(c1ccc(F)c(F)c1Nc1ccc(I)cc1F)N1CC(O)([C@@H]2CCCCN2)C1 [cobimetinib] | 1.65 ± 0.22
O=C(/C=C/c1cccnc1)NCCCCC1CCN(C(=O)c2ccccc2)CC1 [FK866] | 1.97 ± 0.33
CS(=O)(=O)c1ccc(C(=O)Nc2ccc(Cl)c(-c3ccccn3)c2)c(Cl)c1 [vismodegib] | 1.38 ± 0.22
C=CCn1c(=O)c2cnc(Nc3ccc(N4CCN(C)CC4)cc3)nc2n1-c1cccc(C(C)(C)O)n1 [adavosertib] | 1.72 ± 0.46

Same assay, conditions: 0.005 µM

Compound | CTG-3D luminescence at 96 h
COc1cc2c(Oc3ccc4[nH]c(C)cc4c3F)ncnc2cc1OCCCN1CCCC1 [cediranib] | 1.77 ± 0.21
CC(C)n1nc(-c2ccc3oc(N)nc3c2)c2c(N)ncnc21 [sapanisertib] | 1.9 ± 0.47
Cc1cc(Nc2ncnc3ccc(NC4=NC(C)(C)CO4)cc23)ccc1Oc1ccn2ncnc2c1 [tucatinib] | 2.08 ± 0.23
C[C@H](NC(=O)CCC(F)(F)F)C(=O)N[C@@H]1C(=O)N(CCO)c2ncccc2-c2ccccc21 [crenigacestat] | 1.84 ± 0.24
C[C@]12CC[C@@H]3c4ccc(O)cc4C[C@@H](CCCCCCCCC[S+]([O-])CCCC(F)(F)C(F)(F)F)[C@H]3[C@@H]1CC[C@@H]2O (some centres not stated) [fulvestrant] | 1.79 ± 0.46
O=C(c1ccc(F)c(F)c1Nc1ccc(I)cc1F)N1CC(O)([C@@H]2CCCCN2)C1 [cobimetinib] | 1.32 ± 0.1
O=C(/C=C/c1cccnc1)NCCCCC1CCN(C(=O)c2ccccc2)CC1 [FK866] | 1.39 ± 0.55
CS(=O)(=O)c1ccc(C(=O)Nc2ccc(Cl)c(-c3ccccn3)c2)c(Cl)c1 [vismodegib] | 1.47 ± 0.4
C=CCn1c(=O)c2cnc(Nc3ccc(N4CCN(C)CC4)cc3)nc2n1-c1cccc(C(C)(C)O)n1 [adavosertib] | 2.03 ± 0.8

Same assay, conditions: 0.1 µM

Compound | CTG-3D luminescence at 96 h
COc1cc2c(Oc3ccc4[nH]c(C)cc4c3F)ncnc2cc1OCCCN1CCCC1 [cediranib] | 1.68 ± 0.29
CC(C)n1nc(-c2ccc3oc(N)nc3c2)c2c(N)ncnc21 [sapanisertib] | 0.62 ± 0.35
Cc1cc(Nc2ncnc3ccc(NC4=NC(C)(C)CO4)cc23)ccc1Oc1ccn2ncnc2c1 [tucatinib] | 2 ± 0.3
C[C@H](NC(=O)CCC(F)(F)F)C(=O)N[C@@H]1C(=O)N(CCO)c2ncccc2-c2ccccc21 [crenigacestat] | 1.57 ± 0.45
C[C@]12CC[C@@H]3c4ccc(O)cc4C[C@@H](CCCCCCCCC[S+]([O-])CCCC(F)(F)C(F)(F)F)[C@H]3[C@@H]1CC[C@@H]2O (some centres not stated) [fulvestrant] | 2.34 ± 0.46
O=C(c1ccc(F)c(F)c1Nc1ccc(I)cc1F)N1CC(O)([C@@H]2CCCCN2)C1 [cobimetinib] | 1.05 ± 0.23
O=C(/C=C/c1cccnc1)NCCCCC1CCN(C(=O)c2ccccc2)CC1 [FK866] | 0.142 ± 0.22
CS(=O)(=O)c1ccc(C(=O)Nc2ccc(Cl)c(-c3ccccn3)c2)c(Cl)c1 [vismodegib] | 1.57 ± 0.17
C=CCn1c(=O)c2cnc(Nc3ccc(N4CCN(C)CC4)cc3)nc2n1-c1cccc(C(C)(C)O)n1 [adavosertib] | 2.09 ± 0.47

Same assay, conditions: 1 µM

Compound | CTG-3D luminescence at 96 h
COc1cc2c(Oc3ccc4[nH]c(C)cc4c3F)ncnc2cc1OCCCN1CCCC1 [cediranib] | 1.11 ± 0.26
CC(C)n1nc(-c2ccc3oc(N)nc3c2)c2c(N)ncnc21 [sapanisertib] | 0.362 ± 0.2
Cc1cc(Nc2ncnc3ccc(NC4=NC(C)(C)CO4)cc23)ccc1Oc1ccn2ncnc2c1 [tucatinib] | 1.47 ± 0.29
C[C@H](NC(=O)CCC(F)(F)F)C(=O)N[C@@H]1C(=O)N(CCO)c2ncccc2-c2ccccc21 [crenigacestat] | 1.33 ± 0.45
C[C@]12CC[C@@H]3c4ccc(O)cc4C[C@@H](CCCCCCCCC[S+]([O-])CCCC(F)(F)C(F)(F)F)[C@H]3[C@@H]1CC[C@@H]2O (some centres not stated) [fulvestrant] | 1.61 ± 0.073
O=C(c1ccc(F)c(F)c1Nc1ccc(I)cc1F)N1CC(O)([C@@H]2CCCCN2)C1 [cobimetinib] | 0.579 ± 0.038
O=C(/C=C/c1cccnc1)NCCCCC1CCN(C(=O)c2ccccc2)CC1 [FK866] | 0.135 ± 0.23
CS(=O)(=O)c1ccc(C(=O)Nc2ccc(Cl)c(-c3ccccn3)c2)c(Cl)c1 [vismodegib] | 1.45 ± 0.24
C=CCn1c(=O)c2cnc(Nc3ccc(N4CCN(C)CC4)cc3)nc2n1-c1cccc(C(C)(C)O)n1 [adavosertib] | 1.11 ± 0.33

Same assay, conditions: 10 µM

Compound | CTG-3D luminescence at 96 h
COc1cc2c(Oc3ccc4[nH]c(C)cc4c3F)ncnc2cc1OCCCN1CCCC1 [cediranib] | 0.322 ± 0.095
CC(C)n1nc(-c2ccc3oc(N)nc3c2)c2c(N)ncnc21 [sapanisertib] | 0.282 ± 0.079
Cc1cc(Nc2ncnc3ccc(NC4=NC(C)(C)CO4)cc23)ccc1Oc1ccn2ncnc2c1 [tucatinib] | 1.53 ± 0.18
C[C@H](NC(=O)CCC(F)(F)F)C(=O)N[C@@H]1C(=O)N(CCO)c2ncccc2-c2ccccc21 [crenigacestat] | 1.42 ± 0.29
C[C@]12CC[C@@H]3c4ccc(O)cc4C[C@@H](CCCCCCCCC[S+]([O-])CCCC(F)(F)C(F)(F)F)[C@H]3[C@@H]1CC[C@@H]2O (some centres not stated) [fulvestrant] | 1.5 ± 0.26
O=C(c1ccc(F)c(F)c1Nc1ccc(I)cc1F)N1CC(O)([C@@H]2CCCCN2)C1 [cobimetinib] | 0.594 ± 0.092
O=C(/C=C/c1cccnc1)NCCCCC1CCN(C(=O)c2ccccc2)CC1 [FK866] | 0.267 ± 0.47
CS(=O)(=O)c1ccc(C(=O)Nc2ccc(Cl)c(-c3ccccn3)c2)c(Cl)c1 [vismodegib] | 1.3 ± 0.21
C=CCn1c(=O)c2cnc(Nc3ccc(N4CCN(C)CC4)cc3)nc2n1-c1cccc(C(C)(C)O)n1 [adavosertib] | 0.745 ± 0.16

Same assay, conditions: 100 µM

Compound | CTG-3D luminescence at 96 h
COc1cc2c(Oc3ccc4[nH]c(C)cc4c3F)ncnc2cc1OCCCN1CCCC1 [cediranib] | 0.0129 ± 0.024
CC(C)n1nc(-c2ccc3oc(N)nc3c2)c2c(N)ncnc21 [sapanisertib] | 0.0263 ± 0.0063
Cc1cc(Nc2ncnc3ccc(NC4=NC(C)(C)CO4)cc23)ccc1Oc1ccn2ncnc2c1 [tucatinib] | 0.00612 ± 0.0018
C[C@H](NC(=O)CCC(F)(F)F)C(=O)N[C@@H]1C(=O)N(CCO)c2ncccc2-c2ccccc21 [crenigacestat] | 1.19 ± 0.29
C[C@]12CC[C@@H]3c4ccc(O)cc4C[C@@H](CCCCCCCCC[S+]([O-])CCCC(F)(F)C(F)(F)F)[C@H]3[C@@H]1CC[C@@H]2O (some centres not stated) [fulvestrant] | 1.34 ± 0.072
O=C(c1ccc(F)c(F)c1Nc1ccc(I)cc1F)N1CC(O)([C@@H]2CCCCN2)C1 [cobimetinib] | 0.00269 ± 0.0047
O=C(/C=C/c1cccnc1)NCCCCC1CCN(C(=O)c2ccccc2)CC1 [FK866] | 0.166 ± 0.29
CS(=O)(=O)c1ccc(C(=O)Nc2ccc(Cl)c(-c3ccccn3)c2)c(Cl)c1 [vismodegib] | 0.318 ± 0.14
C=CCn1c(=O)c2cnc(Nc3ccc(N4CCN(C)CC4)cc3)nc2n1-c1cccc(C(C)(C)O)n1 [adavosertib] | 0.376 ± 0.023

Same assay, conditions: 625 fM

Compound | CTG-3D luminescence at 96 h
COc1cc2c(Oc3ccc4[nH]c(C)cc4c3F)ncnc2cc1OCCCN1CCCC1 [cediranib] | 1.54 ± 0.24
CC(C)n1nc(-c2ccc3oc(N)nc3c2)c2c(N)ncnc21 [sapanisertib] | 1.56 ± 0.13
Cc1cc(Nc2ncnc3ccc(NC4=NC(C)(C)CO4)cc23)ccc1Oc1ccn2ncnc2c1 [tucatinib] | 2.09 ± 0.49
C[C@H](NC(=O)CCC(F)(F)F)C(=O)N[C@@H]1C(=O)N(CCO)c2ncccc2-c2ccccc21 [crenigacestat] | 1.47 ± 0.27
C[C@]12CC[C@@H]3c4ccc(O)cc4C[C@@H](CCCCCCCCC[S+]([O-])CCCC(F)(F)C(F)(F)F)[C@H]3[C@@H]1CC[C@@H]2O (some centres not stated) [fulvestrant] | 1.72 ± 0.46
O=C(c1ccc(F)c(F)c1Nc1ccc(I)cc1F)N1CC(O)([C@@H]2CCCCN2)C1 [cobimetinib] | 1.63 ± 0.37
O=C(/C=C/c1cccnc1)NCCCCC1CCN(C(=O)c2ccccc2)CC1 [FK866] | 1.93 ± 0.57
CS(=O)(=O)c1ccc(C(=O)Nc2ccc(Cl)c(-c3ccccn3)c2)c(Cl)c1 [vismodegib] | 1.47 ± 0.14
C=CCn1c(=O)c2cnc(Nc3ccc(N4CCN(C)CC4)cc3)nc2n1-c1cccc(C(C)(C)O)n1 [adavosertib] | 1.73 ± 0.35
